Results: patent US20100267635A1, “USE OF PROTEASE INHIBITORS AND GRF MOLECULES IN COMBINATION THERAPY” (THERATECHONOLGIES INC., priority 2009, published 2010)

How the values were obtained:
[1] = Two-way crossover drug interaction study: plasma ritonavir PK with (Treatment A) and without (Treatment B) TH9507; type: in vivo, human
Experimental: (§1) 2 ml of TH9507 (1 mg/ml injectable solution) was administered by subcutaneous injection under fasting conditions once daily for 7 consecutive days (daily dose of 2 mg TH9507).
(§2) N=32 healthy adult (male and female) subjects were enrolled. Dosing occurred in two groups.
(§3) PK/statistics: PK parameters were calculated using standard noncompartmental approaches.
(§4) The 90% CIs for the Treatment A/Treatment B LSM ratios for AUC0-t.

[2] = system: CYP3A; assay: Impact of TH9507 on CYP3A activity, concluded from the ritonavir PK interaction study; type: in vivo, human; conditions: 2 mg TH9507 s.c. days 1 to 7, ritonavir as probe
From the text: as §4

[3] = Plasma TH9507 PK (ELISA) on day 6 in the ritonavir interaction study; type: in vivo; conditions: both sexes, human, sc, 2 mg s.c. once daily
Experimental: as §1, §2, §3

Row | Cmax ([1]; both sexes, human, plasma, oral, 100 mg) [ng/mL] | AUC(0-inf) ([1]; both sexes, human, plasma, oral, 100 mg, read-out: AUC0-inf Treatment B) [ng·h/mL] | AUC(0-t) ([1]; both sexes, human, plasma, oral, 100 mg, read-out: AUC0-t Treatment B) [ng·h/mL] | half-life ([1]; both sexes, human, plasma, oral, 100 mg, read-out: T1/2 Treatment B (converted)) [h] | Tmax ([1]; both sexes, human, plasma, oral, 100 mg, read-out: Tmax Treatment B) [h] | Tmax ([1]; both sexes, human, plasma, oral, read-out: Tmax Treatment A) [h] | T1/2 Treatment A ([1]; plasma ritonavir, with TH9507, arithmetic mean (% CV)) | Compound | impact on CYP3A activity [2] | half-life ([3]; arithmetic mean) [min] | AUC(0-inf) ([3]; geometric mean) [ng·h/mL] | AUC(0-t) ([3]; geometric mean) [ng·h/mL] | Cmax ([3]; geometric mean) [ng/mL] | Tmax ([3]; median) [min]
1 | 453 | 3800 | 3720 | 6.26 | 4.5 | 4.5 | 5.72 (23.0) h | CC(C)c1nc(CN(C)C(=O)N[C@H](C(=O)N[C@@H](Cc2ccccc2)C[C@H](O)[C@H](Cc2ccccc2)NC(=O)OCc2cncs2)C(C)C)cs1 [Ritonavir, 1,3-thiazol-5-ylmethyl N-[(2S,3S,5S)-3-hydroxy-5-[(2S)-3-methyl-2-{[methyl({[2-(propan-2-yl)-1,3-thiazol-4-yl]methyl})carbamoyl]amino}butanamido]-1,6-diphenylhexan-2-yl]carbamate] | – | – | – | – | – | –
2 | – | – | – | – | – | – | – | CC/C=C/CC(=O)N[C@@H](Cc1ccc(O)cc1)C(=O)N[C@@H](C)C(=O)N[C@@H](CC(=O)O)C(=O)N[C@@H](C)C(=O)N[C@H](C(=O)N[C@@H](Cc1ccccc1)C(=O)N[C@H](C(=O)N[C@@H](CC(N)=O)C(=O)N[C@@H](CO)C(=O)N[C@@H](Cc1ccc(O)cc1)C(=O)N[C@@H](CCCNC(=N)N)C(=O)N[C@@H](CCCCN)C(=O)N[C@H](C(=O)N[C@@H](CC(C)C)C(=O)NCC(=O)N[C@@H](CCC(N)=O)C(=O)N[C@@H](CC(C)C)C(=O)N[C@@H](CO)C(=O)N[C@@H](C)C(=O)N[C@@H](CCCNC(=N)N)C(=O)N[C@@H](CCCCN)C(=O)N[C@@H](CC(C)C)C(=O)N[C@@H](CC(C)C)C(=O)N[C@@H](CCC(N)=O)C(=O)N[C@@H](CC(=O)O)C(=O)N[C@H](C(=O)N[C@@H](CCSC)C(=O)N[C@@H](CO)C(=O)N[C@@H](CCCNC(=N)N)C(=O)N[C@@H](CCC(N)=O)C(=O)N[C@@H](CCC(N)=O)C(=O)NCC(=O)N[C@@H](CCC(=O)O)C(=O)N[C@@H](CO)C(=O)N[C@@H](CC(N)=O)C(=O)N[C@@H](CCC(N)=O)C(=O)N[C@@H](CCC(=O)O)C(=O)N[C@@H](CCCNC(=N)N)C(=O)NCC(=O)N[C@@H](C)C(=O)N[C@@H](CCCNC(=N)N)C(=O)N[C@@H](C)C(=O)N[C@@H](CCCNC(=N)N)C(=O)N[C@@H](CC(C)C)C(N)=O)[C@@H](C)CC)C(C)C)[C@@H](C)O)[C@@H](C)CC [TH9507, (hexenoyl trans-3)hGRF(1-44)NH2] | not significant | 6.6 | 0.79 | 0.657 | 2.7 | 9
